Columns and labels:
[1] = tested on: metastatic colorectal cancer; conditions: cited from earlier work
[2] = tested on: cleaved/activated Notch intracellular domain (NICD); test: NICD staining in Dll4-Fc- or DAPT-treated HDMECs (LECs and BECs); format: cell-based, human; conditions: 10 μg/mL, 24 hours
Method: FIG. 1. Expression and function of Dll4-Fc. (A) Map of the AAV9-Dll4-Fc vector. (B) Structure of the Dll4-Fc as a dimeric fusion protein of the ECD of mouse Dll4 and Fc region of human immunoglobulin (hFc). (C) Dll4-Fc in the supernatants of AAV9-transfected 293T cells was analyzed by metabolic labeling, immunoprecipitation with Protein A Sepharose and autoradiography after collecting with protein Sepharose from the supernatant of the virus-infected cells. (D) Human dermal microvascular endothelial cells (HDMECs) on glass coverslips stained with Dll4-Fc (red) on ice. After fixation with paraformaldehyde (PFA) and permeabilzation, the cells were stained for Prox-1 (Green) and Hoechst (Blue). Human immunoglobulin G1 (hIgG) was used as a negative control (Red). Note Dll4-Fc in both the Prox-1-positive lymphatic vascular endothelial cells (LECs) and Prox-1-negative cells. (E) Effect of Dll4-Fc on Notch downstream gene expression. HDMECs were treated with 10 μg/mL Dll4-Fc or 10 μg/mL DAPT for 24 hours, and the expression of Hes-1, Hey-2 and NRARP were quantified by qPCR and normalized for the expression of β-actin. The experiment was repeated 4 times. (F) The cells used in (E) were stained for NICD lymphatic vascular endothelial cells (LECs). Prox-1-positive LECs are indicated by arrowheads. (G) Quantification of NICD fluorescence intensity. **:p<0.01. *: p<0.05. […]

[3] = tested on: VEGF-C-induced BaF3/VEGFR-3 cell proliferation; test: BaF3/VEGFR-3 assay; format: cell-based, mouse; conditions: supernatant from SK-VEGFR-3(D1-3)-Fc cells
Method: The BaF3/VEGFR-3 cells are derived from the interleukin-3 (IL-3) dependent mouse pro-B cell line, BaF3 (Bernardi et al., 1987). The cells express a chimeric receptor consisting of the ECD of human VEGFR-3 fused in-frame to the transmembrane and intracellular domain of mouse erythropoietin receptor (Achen et al., 2000). In IL-3 deficient cell media, the cells can be rescued by the addition of VEGF-C. The serial dilutions of supernatants (50 μl each), as well as positive and negative controls were applied in the wells of 96-well plates in quadruplicate. Subsequently, 20,000 BaF3/VEGFR-3 cells in 50 μl were added and the cells incubated at 37° C. for 48 hours. MTT substrate was added and the cells incubated at 37° C. for 2 hours. Lysis buffer (10% SDS, 10 mM HCl) was added and the plates incubated at 37° C. overnight for colour development. Quantification was done by absorbance at 540 nm.

SK-MeI-103 tumors = test: SK-MeI-103 tumor xenograft growth (control or VEGFR-3(D1-3)-Fc expressing); format: in vivo, mouse; conditions: SK-MeI-103, AAV9-HSA treated mice
Method: (§1) FIG. 7. Neutralization of VEGF-C/D attenuates the inhibition by Dll4-Fc. (A) The mice were injected by AAV9-Dll4-Fc or AAV9-HSA, followed by subcutaneous implantation of 5×10^6 VEGFR-3(D1-3)-Fc expressing or control retrovirus-transfected SK-MeI-103 cells. *: p<0.01, **: p<0.05. (B) Endomucin staining of the tumors. (C) Quantification of endomucin positive area. […] Scale bar 100 μm.
Six- to eight-week old female nu/nu BALB/c mice were purchased from Harlan Laboratories (Venray, The Netherlands). The National Board for Animal Experiments at the Provincial State Office of Southern Finland approved all the experiments, which were performed in accordance with Finnish legislation regarding the humane care and use of laboratory animals. […] Once the tumors became visible during the first few days, the size of the tumor was measured by a digital caliper every second day. The tumor volume was calculated using the formula: (length)×(width)×(depth)×0.52.
The SK-Mel-103 cells were transfected by an empty retrovirus (control) or by a retrovirus encoding VEGFR-3(D1-3)-Fc and then subcutaneously inoculated into nu/nu mice treated with the AAV9-HSA or the AAV9-Dll4-Fc as described above. […] This difference was statistically significant when measured 10, 12 and 14 days after tumor inoculation. […]

[4] = tested on: SK-MeI-103 tumor blood vessels; test: Endomucin and VEGFR-3 staining of SK-MeI-103 tumors; format: in vivo, mouse; conditions: SK-MeI-103 tumors expressing the VEGF-C/D trap
Excerpt: FIG. 6. Dll4-Fc suppresses growth of tumors expressing high levels of endogenous VEGF-C. (A) VEGF-C mRNA levels in the indicated tumor cell lines analyzed by qRT-PCR. (B) Effects of Dll4-Fc on the proliferation LNM35 and SK-MeI-103 cells in culture. […] (C) The effect of Dll4-Fc on the growth of LNM35 and SK-MeI-103 tumors. (D) Endomucin staining of LNM35 and SK-MeI-103 tumors. More sprouts were associated with Dll4-Fc treatment (arrows). (E) Quantification of endomucin positive areas in LNM35 and SK-MeI-103 tumors from (D). **:p<0.01. Scale bar 50 μm.
as §1
FIG. 9. Dll4-Fc induced hypersprouting and VEGFR-3 expression in tumors. (A) High magnification fluorescent imaging of blood vessels in the SW480 tumors. Endomucin staining. […] (C) Quantification of VEGFR-3 staining intensity in the blood vessels. **: p<0.01. […]
The immunofluorescent images were captured with a Zeiss digital Axiocam camera connected to a Zeiss AxioPlan 2 microscope. […] The image quantification was carried out using ImageJ software (NIH, Bethesda, Md.).

BECs on LECs islands = test: Sprout-like structures in 2D culture of LECs and BECs; format: cell-based, human; conditions: 1:1 LECs and BECs, 48 hours, 200 ng/ml VEGF-C with or without 10 μg/ml Dll4-Fc
Method: 1:1 Mixtures of BECs and LECs were grown on cover slips for 48 hours without VEGF-C to allow them to make LECs islands surrounded by BECs. The cells were then incubated for a further 48 hours with 200 ng/ml VEGF-C (produced by Dr Michael Jeltsch, University of Helsinki) with or without 10 μg/ml recombinant human Dll4-Fc protein (R&D Systems). After fixation with 1% PFA, the samples were immunostained for PECAM-1, a blood vascular endothelial marker, and podoplanin, a lymphatic endothelial marker, to identify BECs and LECs. The number of sprout-like projections of BECs on LECs islands was then counted under a fluorescence microscope.

[5] = newly diagnosed, Mayo Clinic or Roswell Park regimen
[6] = subjects progressed following 5-FU therapy

5-FU/leucovorin
median survival [1, 5]: 12-14 months | median time to disease progression [1, 5]: 4-5 months

C[C@H](NC(=O)Cc1cc(F)cc(F)c1)C(=O)N[C@H](C(=O)OC(C)(C)C)c1ccccc1 [DAPT, N—[N-(3,5-difluorophenacetyl)-1-alanyl]-S-phenyl-glycine t-butyl ester]
intensity of NICD [2]: decreased in both LECs and BECs

CCc1c2c(nc3ccc(OC(=O)N4CCC(N5CCCCC5)CC4)cc13)-c1cc3c(c(=O)n1C2)COC(=O)[C@]3(O)CC [irinotecan]
prolongation of survival versus best supportive care [1, 6]: 2.8 month | prolongation of survival versus infusional 5-FU [1, 6]: 2.2 month

B1: VEGFR-3(D1-3)-Fc: fusion protein of the immunoglobulin-like domains 1-3 of the extracellular part of human VEGFR-3 and the Fc part of human immunoglobulin G1 (protein)
chain: YSMTPPTLNITEESHVIDTGDSLSISCRGQHPLEWAWPGAQEAPATGDKDSEDTGVVRDCEGTDARPYCKVLLLHEVHANDTGSYVCYYKYIKARIEGTTAASSYVFVRDFEQPFINKPDTLLVNRKDAMWVPCLVSIPGLNVTLRSQSSVLWPDGQEVVWDDRRGMLVSTPLLHDALYLQCETTWGDQDFLSNPFLVHITGNELYDIQLLPRKSLELLVGEKLVLNCTVWAEFNSGVTFDWDYPGKQAERGKWVPERRSQQTHTELSSILTIHNVSQHDLGSYVCKANNGIQRFRESTEVIVHE
modifications: left off: a dimerising Fc or GST
notes: fusion protein of the immunoglobulin-like domains 1-3 of the extracellular part of human VEGFR-3 and the Fc part of human immunoglobulin G1
BaF3/VEGFR-3 cell proliferation induced by VEGF-C [3]: suppresses | growth rates of VEGFR-3(D1-3)-Fc versus empty retrovirus tumors (SK-MeI-103 tumors): No difference in growth rates | endothelial proliferation / vessel density in tumors [4]: downregulated endothelial proliferation

B2: VEGF-C: Vascular endothelial growth factor-C protein added to endothelial cell cultures (protein)
chain: AHYNTEILKSIDNEWRKTQCMPREVCIDVGKEFGVATNTFFKPPCVSVYRCGGCCNSEGLQCMNTSTSYLSKTLFEITVPLSQGPKPVTISFANHTSCRCMSKLDVYRQVHSIIRR
frequency of sprout-like structures of BECs over LECs islands (BECs on LECs islands): tended to increase the sprout-like structure, but the difference was not statistically significant
